Measured values from PubChem BioAssay (NCI).
Where “and” joins values, the source holds several entries; their conditions need not be identical. Identical values can stand only once.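 Grown in 96-well plates, cells were treated for 48 hours with each compound at five concentrations. Insufficient inhibition: endpoint recorded as highest concentration tested. GI50 is the concentration that inhibits growth by half. TGI: concentration producing complete growth inhibition.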

Legend:
Experiment in all cases: NCI-60 cell line screen, 48 h
A549 NSCLC = test system: A549 NSCLC
MALME-3M melanoma = test system: MALME-3M melanoma
HL-60(TB) leukemia = test system: HL-60(TB) leukemia
KM12 colon = test system: KM12 colon
M19-MEL melanoma = test system: M19-MEL melanoma
SF-295 CNS = test system: SF-295 CNS
HCT-116 colon = test system: HCT-116 colon
COLO 205 colon = test system: COLO 205 colon
UACC-257 melanoma = test system: UACC-257 melanoma
UACC-62 melanoma = test system: UACC-62 melanoma
CCRF-CEM leukemia = test system: CCRF-CEM leukemia
HOP-62 NSCLC = test system: HOP-62 NSCLC
NCI-H226 lung = test system: NCI-H226 lung
U251 CNS = test system: U251 CNS
UO-31 renal = test system: UO-31 renal
SK-OV-3 ovarian = test system: SK-OV-3 ovarian
IGROV1 ovarian = test system: IGROV1 ovarian
SK-MEL-28 melanoma = test system: SK-MEL-28 melanoma
NCI-H460 lung = test system: NCI-H460 lung
ACHN renal = test system: ACHN renal
SK-MEL-2 melanoma = test system: SK-MEL-2 melanoma
SN12C renal = test system: SN12C renal
786-0 renal = test system: 786-0 renal
K-562 leukemia = test system: K-562 leukemia
NCI-H522 lung = test system: NCI-H522 lung
OVCAR-4 ovarian = test system: OVCAR-4 ovarian
A498 renal = test system: A498 renal
MOLT-4 leukemia = test system: MOLT-4 leukemia
RPMI-8226 leukemia = test system: RPMI-8226 leukemia
LXFL 529 NSCLC = test system: LXFL 529 NSCLC
OVCAR-5 ovarian = test system: OVCAR-5 ovarian
HT29 colon = test system: HT29 colon
SW-620 colon = test system: SW-620 colon
SNB-78 CNS = test system: SNB-78 CNS
SNB-75 CNS = test system: SNB-75 CNS
DMS 114 small cell lung = test system: DMS 114 small cell lung
SK-MEL-5 melanoma = test system: SK-MEL-5 melanoma
XF 498 CNS = test system: XF 498 CNS
M14 melanoma = test system: M14 melanoma
NCI-H23 lung = test system: NCI-H23 lung
HCC-2998 colon = test system: HCC-2998 colon
KM20L2 colon = test system: KM20L2 colon
HOP-92 NSCLC = test system: HOP-92 NSCLC
HCT-15 colon = test system: HCT-15 colon
RXF 393 renal = test system: RXF 393 renal
SF-539 CNS = test system: SF-539 CNS
TK-10 renal = test system: TK-10 renal
OVCAR-8 ovarian = test system: OVCAR-8 ovarian
CAKI-1 renal = test system: CAKI-1 renal
SR leukemia = test system: SR leukemia
SF-268 CNS = test system: SF-268 CNS
DMS 273 small cell lung = test system: DMS 273 small cell lung
EKVX NSCLC = test system: EKVX NSCLC
SNB-19 CNS = test system: SNB-19 CNS
RXF-631 renal = test system: RXF-631 renal
DLD-1 colon = test system: DLD-1 colon
LOX IMVI melanoma = test system: LOX IMVI melanoma

O=[N+]([O-])c1ccc(C(Cl)C(Cl)c2ccc(C(Cl)C(Cl)c3ccc([N+](=O)[O-])cc3[N+](=O)[O-])cc2)c([N+](=O)[O-])c1 (stereo not given)
GI50 (A549 NSCLC): 362 nM | TGI (A549 NSCLC): 5040 nM and 4460 nM | GI50 (MALME-3M melanoma): 243 nM | TGI (MALME-3M melanoma): 2330 nM and 570 nM | GI50 (HL-60(TB) leukemia): 132 nM | TGI (KM12 colon): 812 nM | GI50 (M19-MEL melanoma): 256 nM | TGI (M19-MEL melanoma): 3150 nM and 749 nM | GI50 (SF-295 CNS): 602 nM | TGI (SF-295 CNS): 25800 nM and 5760 nM | TGI (HCT-116 colon): 1750 nM | TGI (COLO 205 colon): 1990 nM | TGI (UACC-257 melanoma): 5770 nM | GI50 (UACC-62 melanoma): 247 nM | TGI (UACC-62 melanoma): 2370 nM and 623 nM | TGI (CCRF-CEM leukemia): 1020 nM | TGI (HOP-62 NSCLC): 6200 nM | GI50 (NCI-H226 lung): 230 nM | TGI (U251 CNS): 3030 nM | GI50 (UO-31 renal): 244 nM | GI50 (SK-OV-3 ovarian): 6360 nM | TGI (SK-OV-3 ovarian): > 62000 nM and 51100 nM | GI50 (IGROV1 ovarian): 571 nM | TGI (IGROV1 ovarian): 11400 nM and 8680 nM | GI50 (SK-MEL-28 melanoma): 389 nM | TGI (SK-MEL-28 melanoma): 12300 nM and 1960 nM | GI50 (NCI-H460 lung): 249 nM | TGI (NCI-H460 lung): 2150 nM and 723 nM | GI50 (ACHN renal): 268 nM | TGI (ACHN renal): 6040 nM and 850 nM | GI50 (SK-MEL-2 melanoma): 231 nM | TGI (SK-MEL-2 melanoma): 3270 nM and 472 nM | GI50 (SN12C renal): 307 nM | TGI (SN12C renal): 5410 nM and 1250 nM | GI50 (786-0 renal): 321 nM | TGI (786-0 renal): 5620 nM and 1090 nM | TGI (K-562 leukemia): 438 nM | GI50 (NCI-H522 lung): 183 nM | TGI (NCI-H522 lung): 2360 nM and 447 nM | GI50 (OVCAR-4 ovarian): 326 nM | TGI (OVCAR-4 ovarian): 8210 nM and 3520 nM | GI50 (A498 renal): 1050 nM | TGI (A498 renal): 11100 nM and 2960 nM | TGI (MOLT-4 leukemia): > 62000 nM | TGI (RPMI-8226 leukemia): 509 nM | GI50 (LXFL 529 NSCLC): 179 nM | TGI (LXFL 529 NSCLC): 1900 nM and 377 nM | TGI (OVCAR-5 ovarian): 4830 nM | GI50 (HT29 colon): 313 nM | TGI (HT29 colon): 4570 nM and 1080 nM | TGI (SW-620 colon): 1690 nM | GI50 (SNB-78 CNS): 762 nM | TGI (SNB-78 CNS): > 62000 nM and 52800 nM | GI50 (SNB-75 CNS): 231 nM | TGI (DMS 114 small cell lung): 3590 nM | GI50 (SK-MEL-5 melanoma): 172 nM | TGI (SK-MEL-5 melanoma): 1860 nM and 335 nM | TGI (XF 498 CNS): 389 nM | GI50 (M14 melanoma): 243 nM | TGI (M14 melanoma): 1770 nM and 681 nM | GI50 (NCI-H23 lung): 216 nM | TGI (NCI-H23 lung): 4690 nM and 582 nM | GI50 (HCC-2998 colon): 473 nM | TGI (HCC-2998 colon): 6870 nM and 1590 nM | TGI (KM20L2 colon): 2280 nM | TGI (HOP-92 NSCLC): 3280 nM | GI50 (HCT-15 colon): 214 nM | TGI (HCT-15 colon): 3300 nM and 550 nM | GI50 (RXF 393 renal): 310 nM | TGI (RXF 393 renal): 2330 nM and 1340 nM | GI50 (SF-539 CNS): 466 nM | TGI (SF-539 CNS): 5350 nM and 11600 nM | GI50 (TK-10 renal): 536 nM | TGI (TK-10 renal): 14500 nM and 2500 nM | GI50 (OVCAR-8 ovarian): 282 nM | TGI (OVCAR-8 ovarian): 2130 nM and 918 nM | GI50 (CAKI-1 renal): 350 nM | TGI (CAKI-1 renal): 5700 nM and 1930 nM | TGI (SR leukemia): > 62000 nM | GI50 (SF-268 CNS): 253 nM | TGI (DMS 273 small cell lung): 6710 nM | GI50 (EKVX NSCLC): 559 nM | TGI (EKVX NSCLC): 6180 nM and 2490 nM | TGI (SNB-19 CNS): 18100 nM | GI50 (RXF-631 renal): 336 nM | TGI (RXF-631 renal): 8920 nM and 1260 nM | GI50 (DLD-1 colon): 251 nM | TGI (DLD-1 colon): 6020 nM and 748 nM | GI50 (LOX IMVI melanoma): 403 nM | TGI (LOX IMVI melanoma): 5960 nM and 1720 nM
